In patent US10793514B2, “Glutamine transport inhibitors and methods for treating cancer” (Vanderbilt University, priority 2016, dated 2020):

Assays:
HT29 and HCT-116 cells = assay: Cell viability with or without chloroquine; format: cell-based, human; details: combined with chloroquine (10 μM), 48 h
Experimental: (§1) Viability was evaluated using a commercially available chemiluminescent reagents (CellTiter-Glo, Promega Corp. G7572; MultiTox Glo, Promega Corp. G9270) in 96-well plate format according to the manufacturers protocol. […] Subsequently, CellTiter-Glo reagent was added and the plates were read using a plate reader (BioTek Synergy 4) with standard settings. Each set of conditions was replicated at least three times, technically and biologically. Error is reported as standard deviation (SD). The sulforhodamine B assay was run analogously to the above assays as previously described^19.

human CRC cell lines = assay: Follow-up viability screening (MultiTox Glo, sulforhodamine B); format: cell-based
Experimental: as §1

HCC1806 xenografts = assay: HCC1806 xenograft 10-day exposure study; format: in vivo, mouse; details: 75 mg/kg per day, 10 days
Experimental: Tissues were sectioned (5 μm thickness) and stained for pS6 (Cell Signaling, #4858) and caspase 3 (Cell Signaling #9661). Tissue slides were imaged at 20× magnification.
For in vivo studies, cell-line xenograft tumors were propagated in 6-week old, female athymic nude mice from immortalized cell lines. For HCC-1806 (10×10^6 cells), HCT-116 (5×10^6), and HT29 (10×10^6) cells were injected. Palpable tumors were typically visible within 2-3 weeks. For imaging studies (HCC-1806), tumors were propagated to approximately 500 mm^3. For treatment studies (HCT-116, HT29) tumors were propagated to approximately 200 mm^3 prior to therapy and were randomly assigned into treated and untreated cohorts. For generating the PDX, primary tumor tissue was obtained form a patient at Vanderbilt University Medical Center under an IRB approved protocol. The tumor tissue was genotyped within the VANTAGE core facility. Xenograft was generated as previously described 41. Briefly, tumor tissues were sectioned into approximately 125 cubic millimeter pieces then implanted subcutaneously without further manipulation. […] Tumor volumes were measured manually using calipers every third day and quantified using the formula V=W·L·(H/2).

[1] = system: pERK in HCC1806 and HT29 cells; assay: AlphaScreen SureFire pERK assay; format: cell-based, human; details: 48 h
Experimental: Detection of activated ERK in cell lysates was enabled by the AlphaScreen SureFire ERK assay (Perkin Elmer) according to the manufacturers protocol. Cells were plated in 96-well plates for 24 hours prior to the assay.

HT29 xenografts = assay: Global metabolomic analysis of HT29 xenografts; format: in vivo, mouse; details: 21 consecutive days
Experimental: Metabolomic data acquisition was outsourced to Metabolon, Inc. Samples were prepared using the automated MicroLab STAR® system from Hamilton Company. To remove protein, dissociate small molecules bound to protein or trapped in the precipitated protein matrix, and to recover chemically diverse metabolites, proteins were precipitated with methanol under vigorous shaking for 2 min (Glen Mills GenoGrinder 2000) followed by centrifugation. The resulting extract was divided into five fractions: two for analysis by two separate reverse phase (RP)/UPLC-MS/MS methods with positive ion mode electrospray ionization (ESI), one for analysis by RP/UPLC-MS/MS with negative ion mode ESI, one for analysis by HILIC/UPLC-MS/MS with negative ion mode ESI, and one sample was reserved for backup. Samples were placed briefly on a TurboVap® (Zymark) to remove the organic solvent. All methods utilized a Waters ACQUITY ultra-performance liquid chromatography (UPLC) and a Thermo Scientific Q-Exactive high resolution/accurate mass spectrometer interfaced with a heated electrospray ionization (HESI-II) source and Orbitrap mass analyzer operated at 35,000 mass resolution. The sample extract was dried then reconstituted in solvents compatible to each of the four methods. Each reconstitution solvent contained a series of standards at fixed concentrations to ensure injection and chromatographic consistency. One aliquot was analyzed using acidic positive ion conditions, chromatographically optimized for more hydrophilic compounds. […] Another aliquot was also analyzed using acidic positive ion conditions, however it was chromatographically optimized for more hydrophobic compounds. […] Another aliquot was analyzed using basic negative ion optimized conditions using a separate dedicated C18 column. […] The fourth aliquot was analyzed via negative ionization following elution from a HILIC column (Waters UPLC BEH Amide 2.1×150 mm, 1.7 μm) using a gradient consisting of water and acetonitrile with 10 mM Ammonium Formate, pH 10.8. […] Peaks were quantified using area-under-the-curve. […]

HT29 cells = assay: Glutathione and reactive oxygen species in HT29 cells; format: cell-based, human; details: 48 h
Experimental: Glutathione levels were measured using a commercially available kit (Cayman Chemical 703002) according to the manufacturers protocol. Concurrently ROS was measured in cells using CM-H2DCFDA (Life Technologies C6827) coupled with flow cytometry in accordance with the manufacturers protocol. The assay was replicated replicated at least three times, technically and biologically. Significance was calculated using a t-test in Graphpad Prism. Error is reported as standard deviation (SD).

HCC1806 and HT29 cells = assay: Autophagic flux (CYTO-ID); format: cell-based, human
Experimental: Autophagic flux was measure using the CYTO-ID autophagy detection kit (Enzo Life Sciences ENZ-51031). HCC1806 and HT29 cells were seeded in 96 well plates the day before the experiment. […] Following treatment, cells were gently washed with assay buffer followed by addition of the dual color detection solution and incubation at 37° C. for 30 min. The plate was analyzed on a fluorescence microplane reader (BioTek Synergy 4).

For `Cc1cccc(COc2ccccc2CN(CCC(N)C(=O)O)Cc2ccccc2OCc2cccc(C)c2)c1` (stereo not drawn) [Compound V-9302], the “cell viability, combination” value (HT29 and HCT-116 cells) was “further decreased cell viability”, the “cellular viability and cell death” value (human CRC cell lines; 25 μM, 48 h, three independent assays lacking ATP-dependency) was “reduced cellular viability and increased cell death” and the EC50 (human CRC cell lines; four human CRC cell lines, 48 hrs, MultiTox Glo, read-out: EC50, cellular viability) was 9 to 15 µM. The tumor growth (HCC1806 xenografts) was “tumor growth arrest”, the tumor response markers (HCC1806 xenografts) was “elevated LC3B and cleaved caspase 3, along with decreased pAKT (Ser473) and pS6” and the “pERK (independent biochemical assay)” value [1] was “statistically significant, concentration-dependent decrease in pERK”. For the same compound, the “creatine-phosphate levels in treated tumors” value (HT29 xenografts) was “significantly reduced”, the “oxidized glutathione (GSSG) and 4-hydroxy-nonenal-glutathione in tumors” value (HT29 xenografts) was “significantly elevated” and the “reduction of N-acetylserine in treated tumors” value (HT29 xenografts) was “greater than 4 fold”. The “GSSG levels and ROS” value (HT29 cells) was “elevated GSSG levels and ROS”, the “number of autophagic vesicles” value (HCC1806 and HT29 cells; HT29 cells, combined with chloroquine (10 μM)) was “further increased the number of autophagic vesicles” and the autophagic flux (HCC1806 and HT29 cells; single agent) was “elevated with V-9302 exposure in a concentration-dependent manner”.
